Results from patent publication US10183908B2, “Compositions for the treatment of kidney and/or liver disease” (VECTUS BIOSYSTEMS LIMITED, priority 2015, dated 2019).

Assays:
[1] = test system: bovine aortic endothelial cells; assay: xCELLigence cell impedance in bovine aortic endothelial cells; assay type: cell-based; settings: test compounds at 62.5, 125 or 250 μM; FIG. 9; negative response = indirect vasodilator
Method: Briefly, 50 μl of cell culture medium (DMEM low glucose supplemented with 10% fetal bovine serum at 37° C.) was added to each well of an E-Plate 96 (Roche), and the background impedance in each well was measured. 50 μl of A-10 cell suspension (10,000 cells/well) was then added to the appropriate wells of the E-Plate 96. Cell index was monitored for each well of the E-Plate 96 in RTCA SP Station within the cell culture incubator. After overnight incubation for 16-20 hours at 5% CO2 and 95% humidity, 100 μl of test compound solution (test compounds were prepared in DMSO and diluted with cell culture medium to a final DMSO concentration of 0.25%) was added to the appropriate wells of the E-Plate 96 and cell index values were measured immediately following compound treatment every 20 seconds for 3 hours. Cell index value is baseline-corrected by subtracting the cell index of vehicle-treated cells and normalized by dividing by the cell index at the time point immediately before compound addition. Baseline normalized cell index as a function of time is plotted using Roche RTCA software.
The xCELLigence SP system was also used to measure changes in cellular impedance following the treatment of bovine aortic endothelial cells (European Collection of Cell Cultures) with test compound. The method employed is the same for the A10 embryonic vascular smooth muscle cells described above but with the cell culture medium supplemented with 15% fetal bovine serum instead of 10%.
Compounds may interact with vascular endothelial cells causing the release of substances such as nitric oxide and endothelium-derived hyperpolarising factor, which in turn act on the vascular smooth muscle cells causing vasodilatation and lowering blood pressure. Such compounds are termed indirect vasodilators.

[2] = test system: Rat (NRK-52E) renal proximal tubule cells; assay: Rescue of renal proximal tubule cells from cisplatin cytotoxicity (WST-8/CCK-8); assay type: cell-based; settings: test compound 30 μM; cisplatin 5 μg/ml; 24 or 48 hours; FIG. 10
Method: Rat (NRK-52E) renal proximal tubule cells grown in DMEM+10% FBS+1% NEAA+2 mM glutamine were placed in 96 well plates at 10,000 cells/well and incubated at 37° C. with 5% CO2 overnight. Test compounds at a concentration of 30 μM were incubated with human or rat renal proximal tubule cells for 2 hours at 37° C. and 5% CO2. Cis-diamminedichloroplatinum[…] (cisplatin) was then added at […] and each cell population was then incubated for 24 or 48 hours at 37° C. with 5% CO2. Test compounds were maintained at their original concentrations. To assay the cytotoxic effects of cisplatin on the rat renal proximal tubule cells a highly water-soluble tetrazolium salt, WST-8, which is reduced by dehydrogenases in cells to produce formazan, a water-soluble, yellow-coloured indicator dye was used following the manufacturer's instructions (specifically the Cell Count Kit-8 (CCK-8) assay from Sigma). Plate absorbance of the WST-8 (CCK-8) reagent was then measured at 450 nm using a Thermo Scientific Multiskan EX plate reader.

Row | SMILES | impedance response for bovine aortic endothelial cells [1] | Cisplatin induced cell death in renal proximal tubular cells [2]
1 | Cc1cscc1-c1ccc(-c2cccc(O)c2)c(CCC(N)=O)c1 [Compound P44, 3-[3′-Hydroxy-4-(4-methylthiophen-3-yl)biphenyl-2-yl]propanamide] | Negative impedance responses | decreased
2 | NC(=O)CCc1cc(-c2ccccn2)ccc1-c1cccc(O)c1 [Compound P4, 3-[3′-Hydroxy-4-(pyridin-2-yl)biphenyl-2-yl]propanamide] | Negative impedance responses | decreased
3 | Cc1n[nH]c(C)c1-c1ccc(-c2cccc(O)c2)c(CCC(N)=O)c1 [Compound P42, 3-[4-(3,5-Dimethyl-1H-pyrazol-4-yl)-3′-hydroxybiphenyl-2-yl]propanamide] | Negative impedance responses | decreased
4 | NC(=O)CCc1cc(-c2cccc(F)c2)ccc1-c1cccc(O)c1 [Compound P1, 3-(3″-Fluoro-3-hydroxy-1,1′:4′,1′-terphenyl-2′-yl)propanamide] | Negative impedance responses | decreased
5 | COc1cccc(-c2ccc(-c3cccc(O)c3)c(CCC(N)=O)c2)c1 [Compound P50, 3-(3-Hydroxy-3″-methoxy-1,1′:4′,1″-terphenyl-2′-yl)propanamide] | Negative impedance responses | decreased
6 | NC(=O)CCc1cc(-c2ccncc2)ccc1-c1cccc(O)c1 [Compound P6, 3-[3′-Hydroxy-4-(pyridin-4-yl)biphenyl-2-yl]propanamide] | Negative impedance responses | decreased
7 | NC(=O)CCc1cc(-c2ccc(N)cc2)ccc1-c1cccc(O)c1 [Compound P49, 3-(4″-Amino-3-hydroxy-1,1′:4′,1″-terphenyl-2′-yl)propanamide] | Negative impedance responses | decreased
8 | Cc1n[nH]cc1-c1ccc(-c2cccc(O)c2)c(CCC(N)=O)c1 [Compound P45, 3-[3′-Hydroxy-4-(3-methyl-1H-pyrazol-4-yl)biphenyl-2-yl]propanamide] | – | decreased
9 | NC(=O)CCc1cc(-c2cccc(C(=O)O)c2)ccc1-c1cccc(O)c1 [Compound P47, 3′-(3-Amino-3-oxopropyl)-3″-hydroxy-1,1′:4′,1″-terphenyl-3-carboxylic Acid] | Negative impedance responses | –
10 | Cn1nccc1-c1ccc(-c2cccc(O)c2)c(CCC(N)=O)c1 [Compound P38, 3-[3′-Hydroxy-4-(1-methyl-1H-pyrazol-5-yl)biphenyl-2-yl]propanamide] | Negative impedance responses | decreased
11 | Cc1ccsc1-c1ccc(-c2cccc(O)c2)c(CCC(N)=O)c1 [Compound P43, 3-[3′-Hydroxy-4-(3-methylthiophen-2-yl)biphenyl-2-yl]propanamide] | Negative impedance responses | decreased
12 | NC(=O)CCc1cc(-c2cccc(O)c2)ccc1-c1cccc(O)c1 [Compound P48, 3-(3,3″-Dihydroxy-1,1′:4′,1″-terphenyl-2′-yl)propanamide] | Negative impedance responses | –
13 | Cc1noc(C)c1-c1ccc(-c2cccc(O)c2)c(CCC(N)=O)c1 [Compound P41, 3-(4-(3,5-Dimethylisoxazol-4-yl)-3′-hydroxy-[1,1′-biphenyl]-2-yl)propanamide] | Negative impedance responses | decreased
